Like-named read-outs stand apart in the source and are kept apart here.
How the values were obtained:
TFEB = assay: High content TFEB-GFP nuclear translocation assay; format: cell-based; conditions: Homo sapiens, TFEB-GFP HeLa cells
TFEB S142 = TFEB S142 phosphorylation with p-S142 phospho-antibody in HeLa cells (FIG. 20A); format: cell-based; conditions: starved cells supplemented with normal media with inhibitor
Procedure: FIG. 20 mTORC1 phosphorylates TFEB at serine 142 (S142). […] HeLa cells were treated as indicated and total and nuclear extracts were probed with a TFEB p-S142 phospho-antibody and with anti-FLAG antibody. (B) Schematic representation of TFEB protein structure with the predicted mTORC1 phosphorylation sites and their conservation among vertebrates. Numbering is according to human isoform 1. (C) Sequence conservation scores of the phosphorylation sites and quantitative agreement between mTOR consensus motif and the sequence around the phosphorylation sites of TFEB. (D) S142 and S211 regulate TFEB localization. Flag immunostaining of TFEB subcellular localization in HeLa cells expressing serine-to-alanine mutated versions of TFEB-3×Flag. Nuclei were stained with DAPI. Values are means of five fields containing at least 50 transfected cells. Student's t-test (unpaired) ***P<0.001. Scale bars represent […].
The mouse anti-TFEB monoclonal antibody was purchased from My Biosource catalogue No. MBS 120432. To generate anti-pS142 specific antibodies, rabbits were immunized with the following peptide coupled to KLH: AGNSAPN{pSer}[…]. Following the fourth immunization, rabbits were sacrificed and the serum was collected. Non-phosphospecific antibodies were depleted from the serum by circulation through a column containing the nonphosphorylated antigene. […]

[1] = 3 h, ten concentrations 2.54 nM to 50 μM (FIG. 19D), read-out: EC50, TFEB nuclear translocation
[2] = mobilization of cytosolic TFEB to the nucleus, 3 h at 37° C. in RPMI, ten concentrations 50 μM to 2.54 nM, 4 runs, read-out: Average EC50

Compound	EC50 (TFEB; [1])	EC50 (TFEB; [2])	nutrient-induced S142 phosphorylation of TFEB (TFEB S142)
CO[C@H]1C[C@@H]2CC[C@@H](C)[C@@](O)(O2)C(=O)C(=O)N2CCCC[C@H]2C(=O)O[C@H]([C@H](C)C[C@@H]2CC[C@@H](O)[C@H](OC)C2)CC(=O)[C@H](C)/C=C(\C)[C@@H](O)[C@@H](OC)C(=O)[C@H](C)C[C@H](C)/C=C/C=C/C=C/1C [RAPAMYCIN]	104 µM	> 15 µM	did not
CCC(=O)N1CCN(c2ccc(-n3c(=O)ccc4cnc5ccc(-c6cnc7ccccc7c6)cc5c43)cc2C(F)(F)F)CC1 [TORIN 1]	0.148 µM	< 7 µM	clearly blunted nutrient-induced S142 phosphorylation
